Assay results as given in patent US20180362543A1, “HIV REPLICATION INHIBITOR” (Shionogi & Co., Ltd., priority 2013, published 2018).

What was measured:
[1] = type: in vitro ADME; details: 0 h
[2] = molecular target: T1, CYP3A4 (Homo sapiens, UniProt P08684); experiment: CYP inhibition assay, CYP3A4 (terfenedine hydroxylation); type: in vitro ADME; details: pooled human hepatic microsome, 15 minutes, 37° C.
T1 construct: enzyme, pooled human hepatic microsome 0.2 mg protein/mL; from tissue; host or cells: pooled human liver microsomes
T1 sequence (P08684 whole entry): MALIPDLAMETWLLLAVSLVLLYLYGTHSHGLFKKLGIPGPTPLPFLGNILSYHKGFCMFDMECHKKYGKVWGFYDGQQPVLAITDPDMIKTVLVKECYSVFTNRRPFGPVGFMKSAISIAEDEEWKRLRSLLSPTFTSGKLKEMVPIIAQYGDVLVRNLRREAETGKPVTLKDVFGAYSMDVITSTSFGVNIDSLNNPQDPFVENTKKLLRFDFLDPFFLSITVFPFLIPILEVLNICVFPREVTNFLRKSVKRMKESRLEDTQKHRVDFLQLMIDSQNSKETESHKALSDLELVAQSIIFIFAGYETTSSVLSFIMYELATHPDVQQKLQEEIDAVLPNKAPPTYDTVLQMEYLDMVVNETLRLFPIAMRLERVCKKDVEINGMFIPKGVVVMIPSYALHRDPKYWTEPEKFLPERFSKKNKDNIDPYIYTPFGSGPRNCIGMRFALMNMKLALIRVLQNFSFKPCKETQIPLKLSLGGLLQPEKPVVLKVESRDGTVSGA
Method: (§1) Using commercially available pooled human hepatic microsome, and employing, as markers, 7-ethoxyresorufin O-deethylation (CYP1A2), tolbutamide methyl-hydroxylation (CYP2C9), mephenytoin 4′-hydroxylation (CYP2C19), dextromethorphan O-demethylation (CYP2D6), and terfenedine hydroxylation (CYP3A4) as typical substrate metabolism reactions of human main five CYP enzyme forms (CYP1A2, 2C9, 2C19, 2D6, 3A4), an inhibitory degree of each metabolite production amount by a test compound was assessed. […]
(§2) Each five kinds of substrates, human hepatic microsome, and a test drug in 50 mmol/L Hepes buffer as a reaction solution was added to a 96-well plate as the composition as described above, NADPH, as a cofactor was added to initiate metabolism reactions as markers and, after the incubation at 37° C. for 15 minutes, a methanol/acetonitrile=1/1 (v/v) solution was added to stop the reaction. After the centrifugation at 3000 rpm for 15 minutes, resorufin (CYP1A2 metabolite) in the supernatant was quantified by a fluorescent multilabel counter and tolbutamide hydroxide (CYP2C9 metabolite), mephenytoin 4′ hydroxide (CYP2C19 metabolite), dextrorphan (CYP2D6 metabolite), and terfenadine alcohol (CYP3A4 metabolite) were quantified by LC/MS/MS. […]

[3] = test system: Salmonella typhimurium TA98 strain, TA100 strain; details: Salmonella typhimurium TA98 and TA100, with and without metabolism activating condition
Method: The mutagenicity of the compound of the present invention was assayed.
20 μL of freezing-stored rat typhoid bacillus (Salmonella typhimurium TA98 strain, TA100 strain) was inoculated on 10 mL of a liquid nutrient medium (2.5% Oxoid nutrient broth No. 2), and this was cultured before shaking at 37° C. for 10 hours. 9 mL of a bacterial solution of the TA98 strain was centrifuged (2000×g, 10 minutes) to remove a culturing solution. The bacteria was suspended in F buffer (K2HPO4: 3.5 g/L, KH2PO4: 1 g/L, (NH4)2SO4: 1 g/L, trisodium citrate dehydrate: 0.25 g/L, MgSO4.7H2O: 0.1 g/L), and the suspension was added to 110 mL of an Exposure medium (Micro F buffer containing Biotin: 8 μg/mL, histidine: 0.2 μg/mL, glucose: 8 mg/mL). The TA100 strain was added to 120 mL of the Exposure medium per 3.16 mL of the bacterial solution to prepare a test bacterial solution. […] Since a well containing a bacterium which has obtained the proliferation ability by mutation of an amino acid (histidine) synthesizing enzyme gene turns from purple to yellow due to a pH change, the bacterium proliferation well which has turned to yellow in 48 wells per dose is counted, and was assessed by comparing with a negative control group. […]

[4] = molecular target: T2, CYP1A2 (Homo sapiens, UniProt P05177); experiment: CYP inhibition assay, CYP1A2 (7-ethoxyresorufin O-deethylation); type: in vitro ADME; details: pooled human hepatic microsome, 15 minutes, 37° C.
T2 construct: enzyme, pooled human hepatic microsome 0.2 mg protein/mL; from tissue; host or cells: pooled human liver microsomes
T2 sequence (P05177 1-516): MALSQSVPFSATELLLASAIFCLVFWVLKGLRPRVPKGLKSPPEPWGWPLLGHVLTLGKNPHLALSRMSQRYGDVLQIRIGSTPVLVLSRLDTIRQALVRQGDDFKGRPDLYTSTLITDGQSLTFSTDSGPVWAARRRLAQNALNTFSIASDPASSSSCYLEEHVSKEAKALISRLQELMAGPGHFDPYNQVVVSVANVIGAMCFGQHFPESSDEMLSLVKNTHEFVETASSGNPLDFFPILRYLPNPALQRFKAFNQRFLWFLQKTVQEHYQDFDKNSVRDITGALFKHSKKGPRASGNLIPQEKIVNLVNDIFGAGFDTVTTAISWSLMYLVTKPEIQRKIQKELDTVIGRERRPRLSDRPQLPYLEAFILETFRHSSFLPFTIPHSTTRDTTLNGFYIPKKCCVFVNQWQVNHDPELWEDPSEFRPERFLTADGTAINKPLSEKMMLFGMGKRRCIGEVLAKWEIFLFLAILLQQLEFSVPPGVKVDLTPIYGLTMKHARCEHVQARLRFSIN
Method: as §1, §2

[5] = test system: HIV (HTLV-III B strain); experiment: HIV replication inhibition assay (MTT, MT-4 cells); type: cell-based; details: 4 days culture, concentration at which cell cytotoxicity by virus is inhibited 50%
In short: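 MT-4 cells (2.5×10^4/well) infected with HTLV-III B stock (60 pfu) in presence of compound, cultured four days at 37 °C. Viability by MTT reduction, formazan read at 560 and 690 nm. EC50 is concentration inhibiting virus-induced cytotoxicity by 50%.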

[6] = molecular target: T3, CYP2D6 (Homo sapiens, UniProt P10635); experiment: CYP inhibition assay, CYP2D6 (dextromethorphan O-demethylation); type: in vitro ADME; details: pooled human hepatic microsome, 15 minutes, 37° C.
T3 construct: enzyme, pooled human hepatic microsome 0.2 mg protein/mL; from tissue; host or cells: pooled human liver microsomes
T3 sequence (P10635 whole entry): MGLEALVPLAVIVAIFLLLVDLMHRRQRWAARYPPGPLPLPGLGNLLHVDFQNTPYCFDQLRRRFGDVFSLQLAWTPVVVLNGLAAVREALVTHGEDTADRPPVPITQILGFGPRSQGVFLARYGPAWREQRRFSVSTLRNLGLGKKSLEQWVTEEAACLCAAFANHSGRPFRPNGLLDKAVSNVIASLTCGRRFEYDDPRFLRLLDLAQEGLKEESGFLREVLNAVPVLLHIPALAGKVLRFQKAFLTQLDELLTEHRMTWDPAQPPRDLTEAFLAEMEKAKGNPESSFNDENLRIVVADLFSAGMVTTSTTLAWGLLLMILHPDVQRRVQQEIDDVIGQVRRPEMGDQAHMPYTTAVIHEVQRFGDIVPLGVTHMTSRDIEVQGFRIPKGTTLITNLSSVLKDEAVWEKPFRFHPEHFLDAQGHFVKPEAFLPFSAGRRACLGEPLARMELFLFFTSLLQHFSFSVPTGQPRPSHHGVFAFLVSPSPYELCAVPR
Method: as §1, §2

[7] = Solubility test (1% DMSO, artificial intestinal juice pH 6.8); type: physicochemical; details: pH 6.8, 1% DMSO, 16 hours at 25° C.
Method: The solubility of each compound was determined under 1% DMSO addition conditions. A 10 mmol/L solution of the compound was prepared with DMSO, and 6 μL of the solution was added to 594 μL of an artificial intestinal juice (:water and a 118 mL solution of 0.2 mol/L NaOH reagent are added to 250 mL of 0.2 mol/L potassium dihydrogen phosphate reagent to reach 1000 mL) with a pH of 6.8. The mixture is left standing for 16 hours at 25° C., and the mixture is vacuum-filtered. The filtrate is two-fold diluted with methanol/water=1/1 (v/v), and the compound concentration in the filtrate is measured with HPLC or LC/MS/MS by the absolute calibration method.

[8] = molecular target: T4, CYP2C19 (Homo sapiens, UniProt P33261); experiment: CYP inhibition assay, CYP2C19 (mephenytoin 4'-hydroxylation); type: in vitro ADME; details: pooled human hepatic microsome, 15 minutes, 37° C.
T4 construct: enzyme, pooled human hepatic microsome 0.2 mg protein/mL; from tissue; host or cells: pooled human liver microsomes
T4 sequence (P33261 whole entry): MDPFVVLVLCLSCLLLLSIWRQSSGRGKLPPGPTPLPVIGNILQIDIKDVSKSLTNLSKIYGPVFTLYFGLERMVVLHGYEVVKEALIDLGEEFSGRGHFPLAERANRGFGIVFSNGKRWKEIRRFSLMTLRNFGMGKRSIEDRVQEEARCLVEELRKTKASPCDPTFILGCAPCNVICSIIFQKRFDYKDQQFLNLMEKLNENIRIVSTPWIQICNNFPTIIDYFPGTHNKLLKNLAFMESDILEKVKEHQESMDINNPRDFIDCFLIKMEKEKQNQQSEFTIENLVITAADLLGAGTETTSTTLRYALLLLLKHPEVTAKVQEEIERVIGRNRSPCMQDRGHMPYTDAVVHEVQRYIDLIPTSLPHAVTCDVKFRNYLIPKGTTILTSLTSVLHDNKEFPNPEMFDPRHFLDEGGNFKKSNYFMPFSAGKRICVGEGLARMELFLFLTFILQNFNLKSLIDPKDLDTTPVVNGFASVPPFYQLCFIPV
Method: as §1, §2

[9] = molecular target: T5, human ether-a-go-go related gene (hERG) channel (Homo sapiens, UniProt Q12809); experiment: hERG test (whole cell patch clamp, IKr); type: cell-based; details: HEK293 cells expressing hERG channel, concentration not given
T5 construct: expressed in transfected cells; host or cells: HEK293
T5 sequence (Q12809 whole entry): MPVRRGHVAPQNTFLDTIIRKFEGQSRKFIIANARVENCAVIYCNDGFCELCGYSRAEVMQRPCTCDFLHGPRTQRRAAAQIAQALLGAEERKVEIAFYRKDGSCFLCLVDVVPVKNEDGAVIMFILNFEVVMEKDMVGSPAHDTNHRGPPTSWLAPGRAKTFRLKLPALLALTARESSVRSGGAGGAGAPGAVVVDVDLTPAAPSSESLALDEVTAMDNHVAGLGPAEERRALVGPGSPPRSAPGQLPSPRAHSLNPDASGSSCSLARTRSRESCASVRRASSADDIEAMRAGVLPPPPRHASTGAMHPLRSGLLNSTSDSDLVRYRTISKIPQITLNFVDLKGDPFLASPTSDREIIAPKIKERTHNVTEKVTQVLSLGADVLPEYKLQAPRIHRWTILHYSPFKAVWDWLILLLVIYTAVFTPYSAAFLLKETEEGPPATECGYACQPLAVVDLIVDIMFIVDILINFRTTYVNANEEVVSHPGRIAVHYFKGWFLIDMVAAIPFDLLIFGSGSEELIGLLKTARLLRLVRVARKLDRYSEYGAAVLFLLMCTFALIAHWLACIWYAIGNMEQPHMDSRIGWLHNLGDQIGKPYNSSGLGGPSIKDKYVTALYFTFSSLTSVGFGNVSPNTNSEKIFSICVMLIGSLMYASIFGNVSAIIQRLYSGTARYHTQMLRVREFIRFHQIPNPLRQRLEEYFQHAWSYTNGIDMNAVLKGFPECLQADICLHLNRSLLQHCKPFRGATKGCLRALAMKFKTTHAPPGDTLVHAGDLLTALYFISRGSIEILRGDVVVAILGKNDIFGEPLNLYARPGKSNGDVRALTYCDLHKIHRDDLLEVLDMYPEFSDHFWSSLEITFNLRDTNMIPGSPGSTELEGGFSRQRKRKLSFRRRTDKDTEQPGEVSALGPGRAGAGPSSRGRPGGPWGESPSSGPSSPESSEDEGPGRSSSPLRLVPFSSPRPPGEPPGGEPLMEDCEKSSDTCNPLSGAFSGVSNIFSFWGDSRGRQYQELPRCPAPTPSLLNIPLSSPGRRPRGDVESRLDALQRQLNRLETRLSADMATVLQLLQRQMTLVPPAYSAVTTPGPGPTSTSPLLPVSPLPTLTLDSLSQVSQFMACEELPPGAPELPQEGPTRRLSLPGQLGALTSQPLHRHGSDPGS
Source text: For the purpose of assessing risk of an electrocardiogram QT interval prolongation, effects on delayed rectifier K+ current (IKr), which plays an important role in the ventricular repolarization process of the compound of the present invention, was studied using HEK293 cells expressing human ether-a-go-go related gene (hERG) channel.
After a cell was retained at a membrane potential of −80 mV by whole cell patch clamp method using an automated patch clamp system (PatchXpress 7000A, Axon Instruments Inc.), IKr induced by depolarization pulse stimulation at +40 mV for 2 seconds and, further, repolarization pulse stimulation at −50 mV for 2 seconds was recorded. […] From the recording IKr, an absolute value of the tail peak current was measured based on the current value at the resting membrane potential using an analysis software (DataXpress ver. 1, Molecular Devices Corporation). Further, the inhibition relative to the tail peak current before application of the test substance was calculated, and compared with the vehicle-applied group (0.1% dimethyl sulfoxide solution) to assess influence of the test substance on IKr.

| SMILES | remaining amount of compound in liver microsomes of rat [1] | IC50 [2] | mutagenicity [3] | IC50 [4] | EC50 [5] | IC50 [6] | solubility in the artificial intestinal juice [7] | IC50 [8] | inhibition ratio (hERG, IKr tail peak current) [9] |
| --- | --- | --- | --- | --- | --- | --- | --- | --- | --- |
| Cc1c(-c2c(C)c3c(c(C)c2[C@H](OC(C)(C)C)C(=O)O)NS(=O)(=O)Cc2ccccc2-3)ccc2c1CCCO2 [Compound 10] | 91% | ≥ 20 µM | negative | ≥ 20 µM | 0.0024 µM | ≥ 20 µM | ≥ 50 µM | ≥ 20 µM | – |
| Cc1c2c(c(C)c(C(OC(C)(C)C)C(=O)O)c1-c1ccc3c(c1)CCCO3)NC(=O)N(Cc1ccccc1)C2 (stereo not shown) [Compound 7] | – | – | – | – | 0.0096 µM | – | – | – | 2.6% |
